Experimental findings from US8377974B2 (Millennium Pharmaceuticals, Inc., priority 2004, dated 2013) are described below.

pIC50: −log10 of the molar value.

The assay deals with T1, human plasma protein factor Xa (Homo sapiens, UniProt P00742).
T1 construct: measure proteolytic activity of the enzyme (factor Xa); purchased Haematologic Technologies (Essex Junction, Vt.); host or cells: human plasma
T1 sequence (P00742 235-488 limits assumed): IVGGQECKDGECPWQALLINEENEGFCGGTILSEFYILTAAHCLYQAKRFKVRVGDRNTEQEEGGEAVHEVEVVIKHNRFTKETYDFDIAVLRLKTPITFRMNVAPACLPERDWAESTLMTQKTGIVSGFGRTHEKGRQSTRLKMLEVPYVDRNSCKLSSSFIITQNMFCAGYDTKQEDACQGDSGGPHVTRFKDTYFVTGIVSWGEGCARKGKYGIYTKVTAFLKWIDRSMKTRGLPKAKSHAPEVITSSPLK
T1 sequence (P00742 41-179 partner limits assumed): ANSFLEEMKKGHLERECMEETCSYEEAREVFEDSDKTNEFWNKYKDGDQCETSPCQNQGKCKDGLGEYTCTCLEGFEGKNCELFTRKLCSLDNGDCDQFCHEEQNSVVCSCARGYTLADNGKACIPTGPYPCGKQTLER
In words: Factor Xa IC50 determination: cleavage of paranitroanilide substrate S-2765 in 96-well plates. In kind it is biochemical. The conditions noted are these: fXa 1 nM, S-2765 100 μM, Tris buffered saline pH 7.4, room temperature. The procedure, abridged:
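Initial rates of S-2765 (100 μM final) cleavage, read at 405 nm for 2 min, fitted with a four-parameter equation to give IC50. Enzyme: 1 nM human plasma fXa, 5 min room-temperature preincubation with inhibitor (0.01 nM–10 μM) in 20 mM Tris, 150 mM NaCl, 5 mM CaCl2, 0.1% BSA, 5% DMSO, pH 7.4; duplicates.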
A word on the pIC50: it is −log10 of the IC50, conventionally taken in molar units. A low value points to a large IC50. Take `COc1ccc(CN(C)C)c(-c2ccc(-c3cc(CNC(=O)c4ccc(Cl)s4)on3)cc2)c1` [Example 215, 5-Chloro-thiophene-2-carboxylic acid [3-(2′-dimethylaminomethyl-5′-methoxy-biphenyl-4-yl)-isoxazol-5-ylmethyl]-amide]: the pIC50 was no more than 6.30.

For `O=C(O)c1ccc(-c2cc(CNC(=O)c3ccc(Cl)s3)on2)cc1` [Example 159, 4-(5-{[(5-Chloro-thiophene-2-carbonyl)-amino]-methyl}-isoxazol-3-yl)-benzoic acid], the pIC50 is no more than 6.30.

In the case of `CSc1cc(C2=NCCN2C)ccc1C1=NOC(CNC(=O)c2ccc(Cl)s2)C1` (stereo not drawn) [Example 137, 5-Chloro-thiophene-2-carboxylic acid {3-[4-(1-methyl-4,5-dihydro-1H-imidazol-2-yl)-2-methylsulfanyl-phenyl]-4,5-dihydro-isoxazol-5-ylmethyl}-amide], the pIC50 was no less than 7.00.

For `CN(C)CCN(C)C(=N)c1ccc(-c2cc(CN(C)C(=O)c3ccc(Cl)s3)on2)cc1` [Example 44, 5-Chloro-thiophene-2-carboxylic acid (3-{4-[N-(2-dimethylamino-ethyl)-N-methyl-carbamimidoyl]-phenyl}-isoxazol-5-ylmethyl)-methyl-amide], the pIC50 was no more than 6.30.

Molecule `CCCN(C)C(=N)c1ccc(-c2nc(CNC(=O)c3ccc(Cl)s3)co2)cc1` [Example 344, N-((2-(4-(N-Methyl-N-propylcarbamimidoyl)phenyl)oxazol-4-yl)methyl)-5-chlorothiophene-2-carboxamide] had a pIC50 of 6.30 to 7.00.

`CSc1cc(C(=N)N2CCCC2)ccc1C1=NOC(CNC(=O)c2ccc(Cl)s2)C1` (stereo not drawn) [Example 138, 5-Chloro-thiophene-2-carboxylic acid {3-[4-(imino-pyrrolidin-1-yl-methyl)-2-methylsulfanyl-phenyl]-4,5-dihydro-isoxazol-5-ylmethyl}-amide] gave a pIC50 of no less than 7.00.

Consider `O=C(NCc1cc(-c2ccccc2)no1)c1ccc(Cl)s1` [Example 146, 5-Chloro-thiophene-2-carboxylic acid (3-phenyl-isoxazol-5-ylmethyl)-amide], for which the pIC50 is no more than 6.30.

`O=C(NCC1CC(c2ccc(Cl)cc2)=NO1)c1ccc(Cl)s1` (stereo not drawn) [Example 153, 5-Chloro-thiophene-2-carboxylic acid [3-(4-chloro-phenyl)-4,5-dihydro-isoxazol-5-ylmethyl]-amide] gave a pIC50 of no more than 6.30.

As to `C[C@@H](NC(=O)c1ccc(Cl)s1)c1cc(-c2ccc(C(=N)N3CCCCC3)cc2)no1` [Example 52, (R)-5-Chloro-thiophene-2-carboxylic acid (1-{3-[4-(imino-piperidin-1-yl-methyl)-phenyl]-isoxazol-5-yl}-ethyl)-amide], the pIC50 is no more than 6.30.

Regarding `O=C(NCC1CC(c2ccc(Br)cc2)=NO1)c1ccc(Cl)s1` (stereo not drawn) [Example 1, 5-Chloro-thiophene-2-carboxylic acid [3-(4-bromo-phenyl)-4,5-dihydro-isoxazol-5-ylmethyl]-amide], the pIC50 was no more than 6.30.

In turn, `CC(=N)N1CCC(c2cc(CNC(=O)c3ccc(Cl)s3)on2)CC1` [Example 180, 5-Chloro-thiophene-2-carboxylic acid {3-[1-(1-imino-ethyl)-piperidin-4-yl]-isoxazol-5-ylmethyl}-amide] had a pIC50 of no more than 6.30.

In the case of `COc1ccc(-c2cc(CNC(=O)c3ccc(Cl)s3)on2)cc1` [Example 152, 5-Chloro-thiophene-2-carboxylic acid [3-(4-methoxy-phenyl)-isoxazol-5-ylmethyl]-amide], the pIC50 was no more than 6.30.

Consider `N=C(c1ccc(C2=NOC(CNC(=O)c3ccc(Cl)s3)C2)c(OC2CCCCC2)c1)N1CCCC1` (stereo not drawn) [Example 117, 5-Chloro-thiophene-2-carboxylic acid {3-[2-cyclohexyloxy-4-(imino-pyrrolidin-1-yl-methyl)-phenyl]-4,5-dihydro-isoxazol-5-ylmethyl}-amide], for which the pIC50 was no less than 7.00.

The molecule `O=C(NCc1cn(-c2ccc(N3CCOCC3)nc2)nn1)c1ccc(Cl)s1` [Example 386, 5-Chloro-N-((1-(6-morpholinopyridin-3-yl)-1H-1,2,3-triazol-4-yl)methyl)thiophene-2-carboxamide] showed a pIC50 of 6.30 to 7.00.

With `CN(C)C(=N)c1ccc(-c2cc(CN(C)C(=O)c3ccc(Cl)s3)on2)cc1` [Example 35, 5-Chloro-thiophene-2-carboxylic acid {3-[4-(N,N-dimethyl-carbamimidoyl)-phenyl]-isoxazol-5-ylmethyl}-methyl-amide], the pIC50 was no more than 6.30.

`O=C(NCc1cc(-c2ccc(C(=O)N3CCCC3)cc2)no1)c1ccc(Cl)s1` [Example 167, 5-Chloro-thiophene-2-carboxylic acid {3-[4-(pyrrolidine-1-carbonyl)-phenyl]-isoxazol-5-ylmethyl}-amide] gave a pIC50 of 6.30 to 7.00.

Turning to `O=C(NCc1cc(-c2ccc(-c3ccccn3)cc2)no1)c1ccc(Cl)s1` [Example 220, 5-Chloro-thiophene-2-carboxylic acid [3-(4-pyridin-2-yl-phenyl)-isoxazol-5-ylmethyl]-amide], the pIC50 is no more than 6.30.

With `O=C(NCC1CC(c2ccccc2)=NO1)c1ccc(Cl)s1` (stereo not drawn) [Example 144, 5-Chloro-thiophene-2-carboxylic acid (3-phenyl-4,5-dihydro-isoxazol-5-ylmethyl)-amide], the pIC50 was no more than 6.30.

On to `N#Cc1ccc(C2=NOC(CNC(=O)c3ccc(Cl)s3)C2)cc1` (stereo not drawn) [Example 7, 5-Chloro-thiophene-2-carboxylic acid [3-(4-cyano-phenyl)-4,5-dihydro-isoxazol-5-ylmethyl]-amide], for which the pIC50 was no less than 7.00.

`CCN(C)C(=N)c1ccc(-c2nc(CNC(=O)c3ccc(Cl)s3)co2)cc1` [Example 343, N-((2-(4-(N-Ethyl-N-methylcarbamimidoyl)phenyl)oxazol-4-yl)methyl)-5-chlorothiophene-2-carboxamide] showed a pIC50 of 6.30 to 7.00.

On to `CCN(C)C(=N)c1ccc(-c2cc(CN(C)C(=O)c3ccc(Cl)s3)on2)cc1` [Example 42, 5-Chloro-thiophene-2-carboxylic acid {3-[4-(N-ethyl-N-methyl-carbamimidoyl)-phenyl]-isoxazol-5-ylmethyl}-methyl-amide], for which the pIC50 was no more than 6.30.

With `COC(=O)c1ccc(-c2cc(CNC(=O)c3ccc(Cl)s3)on2)cc1` [Example 157, 4-(5-{[(5-Chloro-thiophene-2-carbonyl)-amino]-methyl}-isoxazol-3-yl)-benzoic acid methyl ester], the pIC50 was no more than 6.30.

In the case of `CN1CCN=C1c1ccc(-c2cc(CNC(=O)c3ccc(Cl)s3)no2)cc1` [Example 331, 5-Chloro-N-((5-(4-(1-methyl-4,5-dihydro-1H-imidazol-2-yl)phenyl)isoxazol-3-yl)methyl)thiophene-2-carboxamide], the pIC50 was no less than 7.00.

`CC(=N)N1CCC(C2=NOC(CNC(=O)c3ccc(Cl)s3)C2)CC1` (stereo not drawn) [Example 173, 5-Chloro-thiophene-2-carboxylic acid {3-[1-(1-imino-ethyl)-piperidin-4-yl]-4,5-dihydro-isoxazol-5-ylmethyl}-amide] showed a pIC50 of no more than 6.30.

Molecule `O=C(NCC1CC(c2ccc(-c3ccccc3CN3CCCCC3)cc2)=NO1)c1ccc(Cl)s1` (stereo not drawn) [Example 196, 5-Chloro-thiophene-2-carboxylic acid [3-(2′-piperidin-1-ylmethyl-biphenyl-4-yl)-4,5-dihydro-isoxazol-5-ylmethyl]-amide] gave a pIC50 of no less than 7.00.

Take `CSc1cc(C(=N)N2CCCC2)ccc1-c1cc(CNC(=O)c2ccc(Cl)s2)on1` [Example 142, 5-Chloro-thiophene-2-carboxylic acid {3-[4-(imino-pyrrolidin-1-yl-methyl)-2-methylsulfanyl-phenyl]-isoxazol-5-ylmethyl}-amide]: the pIC50 was no less than 7.00.

The molecule `CN(c1ccc(C2=NOC(CNC(=O)c3ccc(Cl)s3)C2)cc1)c1ccnc(N)n1` (stereo not drawn) [Example 231, 5-Chloro-thiophene-2-carboxylic acid (3-{4-[(2-amino-pyrimidin-4-yl)-methyl-amino]-phenyl}-4,5-dihydro-isoxazol-5-ylmethyl)-amide] gave a pIC50 of no more than 6.30.

`N=C(c1ccc(C2=NOC(CNC(=O)c3ccc(Cl)s3)C2)c(N2CCCC2)c1)N1CCCC1` (stereo not drawn) [Example 80, 5-Chloro-thiophene-2-carboxylic acid {3-[4-(imino-pyrrolidin-1-yl-methyl)-2-pyrrolidin-1-yl-phenyl]-4,5-dihydro-isoxazol-5-ylmethyl}-amide] had a pIC50 of 6.30 to 7.00.

For `O=C(NCC1CC(c2ccc(N3CCOCCC3=O)cc2)=NO1)c1ccc(Cl)s1` (stereo not drawn) [Example 246, 5-Chloro-thiophene-2-carboxylic acid {3-[4-(5-oxo-[1,4]oxazepan-4-yl)-phenyl]-4,5-dihydro-isoxazol-5-ylmethyl}-amide], the pIC50 is no less than 7.00.

Consider `O=C(NCC1CC(c2ccc(Oc3ccccc3)cc2)=NO1)c1ccc(Cl)s1` (stereo not drawn) [Example 5, 5-Chloro-thiophene-2-carboxylic acid [3-(4-phenoxy-phenyl)-4,5-dihydro-isoxazol-5-ylmethyl]-amide], for which the pIC50 is no more than 6.30.

In turn, `CN(C)Cc1cccc(-c2cccc(C3=NOC(CNC(=O)c4ccc(Cl)s4)C3)c2)c1` (stereo not drawn) [Example 264, 5-Chloro-thiophene-2-carboxylic acid [3-(3′-dimethylaminomethyl-biphenyl-3-yl)-4,5-dihydro-isoxazol-5-ylmethyl]-amide] had a pIC50 of no more than 6.30.

As for `CN(C)C(=N)c1ccc(-c2cc(CNC(=O)c3ccc(Cl)s3)on2)c(N2CCOCC2)c1` [Example 98, 5-Chloro-thiophene-2-carboxylic acid {3-[4-(N,N-dimethyl-carbamimidoyl)-2-morpholin-4-yl-phenyl]-isoxazol-5-ylmethyl}-amide], the pIC50 was no less than 7.00.

The molecule `CN(Cc1cc(-c2ccc(C(=N)N3CCCC3)cc2)no1)C(=O)c1ccc(Cl)s1` [Example 37, 5-Chloro-thiophene-2-carboxylic acid {3-[4-(imino-pyrrolidin-1-yl-methyl)-phenyl]-isoxazol-5-ylmethyl}-methyl-amide] showed a pIC50 of no more than 6.30.
